The text below walks through data of patent US20040254175A1, “Derivatives of phenoxy-n-'4-(isothiazolindin-1,1-dioxid-2yl)phenyl!-valerian-acid amide and other compounds as inhibitors of the coagulation factor xa in the treatment of thromboembolic diseases and tumors” (priority 2001, published 2004).

One test addresses TF/FVIIa (Homo sapiens, UniProt P08709). Put plainly: Inhibition of TF/factor VIIa (TF/FVIIa-IC50).
A further test deals with FXa (Homo sapiens, UniProt P00742). As to the kind of experiment: Inhibition of factor Xa (FXa-IC50).

Where a name gives a salt, the structure may show the parent alone.

Sequence of TF/FVIIa (P08709 213-466 limits assumed): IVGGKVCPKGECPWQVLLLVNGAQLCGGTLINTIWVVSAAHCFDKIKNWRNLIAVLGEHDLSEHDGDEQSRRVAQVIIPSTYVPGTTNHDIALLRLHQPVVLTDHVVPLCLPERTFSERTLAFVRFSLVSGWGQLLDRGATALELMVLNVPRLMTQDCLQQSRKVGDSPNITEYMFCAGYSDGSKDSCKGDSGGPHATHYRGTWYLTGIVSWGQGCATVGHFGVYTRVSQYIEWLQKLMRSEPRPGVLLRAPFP
Sequence of TF/FVIIa (P08709 61-212 partner limits assumed): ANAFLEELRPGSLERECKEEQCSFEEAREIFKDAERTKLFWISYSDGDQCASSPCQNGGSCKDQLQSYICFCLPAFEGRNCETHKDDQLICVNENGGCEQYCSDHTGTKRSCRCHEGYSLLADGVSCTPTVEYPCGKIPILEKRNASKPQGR
Sequence of TF/FVIIa (P13726 33-295 partner): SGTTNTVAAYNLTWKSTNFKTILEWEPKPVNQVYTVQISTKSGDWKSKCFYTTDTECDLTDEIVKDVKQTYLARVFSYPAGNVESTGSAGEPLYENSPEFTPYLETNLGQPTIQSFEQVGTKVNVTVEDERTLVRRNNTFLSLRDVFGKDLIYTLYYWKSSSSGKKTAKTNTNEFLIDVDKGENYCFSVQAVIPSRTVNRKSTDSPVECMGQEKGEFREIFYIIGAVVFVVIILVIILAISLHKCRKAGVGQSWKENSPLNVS
Sequence of FXa (P00742 235-488 limits assumed): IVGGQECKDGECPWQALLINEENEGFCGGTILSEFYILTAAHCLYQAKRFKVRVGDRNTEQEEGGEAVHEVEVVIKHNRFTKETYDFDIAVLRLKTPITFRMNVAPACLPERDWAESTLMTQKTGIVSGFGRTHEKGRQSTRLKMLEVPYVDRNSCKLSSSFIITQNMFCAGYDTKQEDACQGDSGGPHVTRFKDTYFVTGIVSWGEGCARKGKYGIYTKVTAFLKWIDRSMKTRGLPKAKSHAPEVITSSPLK
Sequence of FXa (P00742 41-179 partner limits assumed): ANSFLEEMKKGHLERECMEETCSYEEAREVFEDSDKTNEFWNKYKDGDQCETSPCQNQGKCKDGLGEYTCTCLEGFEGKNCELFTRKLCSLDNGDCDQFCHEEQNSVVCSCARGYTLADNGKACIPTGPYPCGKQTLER
Description for FXa: The inhibition of factor Xa by the compounds according to the invention and the measurement of the anticoagulant and antithrombotic activity can be determined by conventional in-vitro or in-vivo methods.

For the molecule `CCCC(Oc1cccc(C(=N)N)c1)C(=O)Nc1ccc(N2CCCS2(=O)=O)cc1` (stereo not shown) [AA, 2-(3-amidinophenoxy)-N-[4-(1,1-dioxoisothiazolidin-2-yl)phenyl]valeramide, acetate], the IC50 (usually the point on the concentration scale where inhibition reaches its midpoint) at TF/FVIIa was 0.45 µM; on FXa it was 0.35 µM.

For the molecule `Cc1cc(NC(=O)C(Nc2cccc(CN)c2)c2ccccc2)ccc1N1CCCS1(=O)=O` (stereo not shown) [BB, 2-(3-aminomethylphenylamino)-N-[4-(1,1-dioxoisothiazolidin-2-yl)-3-methylphenyl]-2-phenylacetamide, hydrochloride], the IC50 against TF/FVIIa worked out at 0.87 µM; on FXa it was 0.49 µM.
